Data as given in publication PMC2846716 (Journal of medicinal chemistry, 2010).
Where a SMILES comes first, the peptide text is derived from it. [ ]: non-standard residue; d: D form. The star is where a group is joined. NMeW = CN[C@@H](Cc1c[nH]c2ccccc12)C(=O)O; Palmitoyl = CCCCCCCCCCCCCCCC(=O)*

What was measured:
[1] = Stability in 25% rat serum; assay type: in vitro ADME; details: 25% rat serum at 37° C, 0.1M Tris-HCl pH 7.5, 20 μM peptide, up to 8 hours, HPLC
[2] = in vitro stability in rat serum; ref [5], [7]; cited from earlier work
CF-1 mice [3] = test: 6 Hz corneal stimulation seizure test; assay type: in vivo, mouse; details: 4 mg/kg i.p.; for Primary Screening at 4 mg/kg (6 Hz, 32 mA), mice protected / tested, 15 min: challenged 15 min after administration; for Primary Screening at 4 mg/kg (6 Hz, 32 mA), mice protected / tested, 30 min: challenged 30 min after administration; for Primary Screening at 4 mg/kg (6 Hz, 32 mA), mice protected / tested, 60 min: challenged 60 min after administration; for Primary Screening at 4 mg/kg (6 Hz, 32 mA), mice protected / tested, 120 min: challenged 120 min after administration; for Primary Screening at 4 mg/kg (6 Hz, 32 mA), mice protected / tested, 240 min: challenged 240 min after administration
CF-1 mice [4] = details: after i.p. administration; ref [5]; cited from earlier work
[5] = LogD by HPLC capacity factor; assay type: physicochemical; details: RP-HPLC, Vydac diphenyl column (capacity factor k')
hGalR2 = molecular target: T1, hGalR2 (Homo sapiens, UniProt O43603); assay type: binding; details: relative to [N-Me, des-Sar]Gal-B2
T1 sequence (O43603 1-387): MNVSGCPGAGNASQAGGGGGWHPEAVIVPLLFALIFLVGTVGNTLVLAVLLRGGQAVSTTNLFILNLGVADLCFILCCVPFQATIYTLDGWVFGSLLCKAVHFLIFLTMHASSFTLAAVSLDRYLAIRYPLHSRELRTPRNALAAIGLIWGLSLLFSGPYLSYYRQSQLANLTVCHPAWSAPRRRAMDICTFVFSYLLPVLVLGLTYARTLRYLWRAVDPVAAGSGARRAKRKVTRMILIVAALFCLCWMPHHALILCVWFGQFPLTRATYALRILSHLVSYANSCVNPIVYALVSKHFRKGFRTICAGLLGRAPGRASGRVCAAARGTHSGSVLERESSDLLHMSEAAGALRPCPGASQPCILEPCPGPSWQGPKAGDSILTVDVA

GalR3 = details: binding; ref [18]; cited from earlier work

Compound | half-life in 25% rat serum [1] | serum half-life in rat serum [2] | Primary Screening at 4 mg/kg (6 Hz, 32 mA), mice protected / tested, 15 min (CF-1 mice [3]) | Primary Screening at 4 mg/kg (6 Hz, 32 mA), mice protected / tested, 30 min (CF-1 mice [3]) | Primary Screening at 4 mg/kg (6 Hz, 32 mA), mice protected / tested, 60 min (CF-1 mice [3]) | Primary Screening at 4 mg/kg (6 Hz, 32 mA), mice protected / tested, 120 min (CF-1 mice [3]) | Primary Screening at 4 mg/kg (6 Hz, 32 mA), mice protected / tested, 240 min (CF-1 mice [3]) | ED50, 6 Hz corneal stimulation mouse model (CF-1 mice [4]) | chromatographic logD [5] | reduction of binding toward GalR2 on removal of N-terminal methyl group (hGalR2) | preference towards GalR2 above GalR3 (GalR3)
CCCCCCCCCCCCCCCC(=O)NCCCC[C@H](NC(=O)[C@H](CCCCN)NC(=O)[C@H](CCCCN)NC(=O)[C@@H]1CCCN1C(=O)CNC(=O)[C@H](CC(C)C)NC(=O)[C@H](CC(C)C)NC(=O)[C@H](Cc1ccc(O)cc1)NC(=O)CNC(=O)[C@H](C)NC(=O)[C@H](CO)NC(=O)[C@H](CC(N)=O)NC(=O)[C@H](CC(C)C)NC(=O)[C@@H](NC(=O)[C@H](Cc1c[nH]c2ccccc12)NC(=O)CNC)[C@@H](C)O)C(=O)N[C@@H](CCCCN)C(N)=O [Gal-B2] | 9.4 h | 9.4 h | 3/4 | 4/4 | 4/4 | 4/4 | 0/4 | 0.8 mg/kg |  |  | 
CCCCCCCCCCCCCCCC(=O)NCCCC[C@H](NC(=O)[C@H](CCCCN)NC(=O)[C@H](CCCCN)NC(=O)[C@@H]1CCCN1C(=O)CNC(=O)[C@H](CC(C)C)NC(=O)[C@H](CC(C)C)NC(=O)[C@H](Cc1ccc(O)cc1)NC(=O)CNC(=O)[C@H](C)NC(=O)[C@H](CO)NC(=O)[C@H](CC(N)=O)NC(=O)[C@H](CC(C)C)NC(=O)[C@@H](NC(=O)[C@@H](N)Cc1c[nH]c2ccccc12)[C@@H](C)O)C(=O)N[C@@H](CCCCN)C(N)=O [Gal-B5] (H-WTLNSAGYLLGPKKK(Palmitoyl)K-NH2) |  |  | 2/4 | 1/4 | 2/4 | 2/4 | 0/3 |  | 1.22 ± 0.02 | 2 fold | 
CCCCCCCCCCCCCCCC(=O)NCCCC[C@H](NC(=O)[C@H](CCCCN)NC(=O)[C@H](CCCCN)NC(=O)[C@@H]1CCCN1C(=O)CNC(=O)[C@H](CC(C)C)NC(=O)[C@H](CC(C)C)NC(=O)[C@H](Cc1ccc(O)cc1)NC(=O)CNC(=O)[C@H](C)NC(=O)[C@H](CO)NC(=O)[C@H](CC(N)=O)NC(=O)[C@H](CC(C)C)NC(=O)[C@@H](NC(=O)[C@H](Cc1c[nH]c2ccccc12)NC(C)=O)[C@@H](C)O)C(=O)N[C@@H](CCCCN)C(N)=O [[N-Ac, des-Sar]Gal-B2] (Ac-WTLNSAGYLLGPKKK(Palmitoyl)K-NH2) |  |  |  |  |  |  |  |  | 1.28 ± 0.02 |  | 
CCCCCCCCCCCCCCCC(=O)NCCCC[C@H](NC(=O)[C@H](CCCCN)NC(=O)[C@H](CCCCN)NC(=O)[C@@H]1CCCN1C(=O)CNC(=O)[C@H](CC(C)C)NC(=O)[C@H](CC(C)C)NC(=O)[C@H](Cc1ccc(O)cc1)NC(=O)CNC(=O)[C@H](C)NC(=O)[C@H](CO)NC(=O)[C@H](CC(N)=O)NC(=O)[C@H](CC(C)C)NC(=O)[C@@H](NC(=O)[C@H](Cc1c[nH]c2ccccc12)NC)[C@@H](C)O)C(=O)N[C@@H](CCCCN)C(N)=O [[N-Me, des-Sar]Gal-B2] (H-[NMeW]TLNSAGYLLGPKKK(Palmitoyl)K-NH2) |  |  | 0/4 | 3/4 | 3/4 | 1/4 | 0/3 |  | 1.29 ± 0.01 |  | 
CCCCCCCCCCCCCCCC(=O)NCCCC[C@H](NC(=O)[C@H](CCCCN)NC(=O)[C@H](CCCCN)NC(=O)[C@@H]1CCCN1C(=O)CNC(=O)[C@H](CC(C)C)NC(=O)[C@H](CC(C)C)NC(=O)[C@H](Cc1ccc(O)cc1)NC(=O)CNC(=O)[C@H](C)NC(=O)[C@H](CO)NC(=O)[C@H](CC(N)=O)NC(=O)[C@H](CC(C)C)NC(=O)[C@@H](NC(=O)[C@H](Cc1c[nH]c2ccccc12)NC(=O)[C@H](C)N)[C@@H](C)O)C(=O)N[C@@H](CCCCN)C(N)=O [[Sar1Ala]Gal-B2] (H-AWTLNSAGYLLGPKKK(Palmitoyl)K-NH2) |  |  | 4/4 | 4/4 | 4/4 | 1/4 | 0/4 |  | 1.28 ± 0.01 |  | 
CCCCCCCCCCCCCCCC(=O)NCCCC[C@H](NC(=O)[C@H](CCCCN)NC(=O)[C@H](CCCCN)NC(=O)[C@@H]1CCCN1C(=O)CNC(=O)[C@H](CC(C)C)NC(=O)[C@H](CC(C)C)NC(=O)[C@H](Cc1ccc(O)cc1)NC(=O)CNC(=O)[C@H](C)NC(=O)[C@H](CO)NC(=O)[C@H](CC(N)=O)NC(=O)[C@H](CC(C)C)NC(=O)[C@@H](NC(=O)[C@H](Cc1c[nH]c2ccccc12)NC(=O)CN)[C@@H](C)O)C(=O)N[C@@H](CCCCN)C(N)=O [[Sar1Gly]Gal-B2] |  |  | 1/4 | 3/4 | 3/4 | 0/4 | 0/3 |  | 1.3 ± 0.04 |  | 
WTLNSAGYLL-CONH2 [Gal(2-11)] |  |  |  |  |  |  |  |  |  |  | 12 fold
